Converted amounts (≈) assume the structure as drawn. Where two headings read alike, the source gives them in different places. Non-standard residues stand in square brackets, D forms with d. Residues, ends and D or L forms follow the SMILES beside them. Dab = NCC[C@H](N)C(=O)O
Assays:
[1] = system: MDA-MB-231 cells; assay: MTT antiproliferative assay, MDA-MB-231; format: cell-based, human; conditions: for IC50: MTT, 72 h, read-out: Mean IC50 ± SD, MDA-MB-231; for SI (Selectivity Index), MDA-MB-231: SI = IC50 MCF-12F/IC50 tumor cells;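 on SI (Selectivity Index), MDA-MB-231: numerator is the IC50 in non-tumorigenic MCF-12F cells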
Experimental: The cell lines BALB 3T3 (mouse embryonic fibroblasts) and MCF-12F (human breast epithelial cells) were used as models for healthy tissue. The MCF-7 and MDA-MB-231 cell lines were used as in vitro models for luminal A- and basal B-type breast cancer, respectively. Cell lines were obtained from the American Type Cultures Collection (ATCC, Manassas, VA, USA). Cells were cultured in Dulbecco modified Eagle’s medium (DMEM) supplemented with 10% fetal bovine serum (FBS), 100 U/mL penicillin, and 0.1 mg/mL streptomycin (Sigma-Aldrich, Schnelldorf, Germany) in an incubator at 37 °C, 5% CO2 and 95% humidity. Plastic flasks 75 cm^2 (Biologix, Lenexa, KS, USA) were used to grow the cells.
The antiproliferative activity testing was performed on cell cultures using the MTT-dye reduction assay. This assay is based on the metabolism of MTT to insoluble formazan by mitochondrial reductases. The formazan concentration can be determined spectrophotometrically. The measured absorption is an indicator of cell viability. Cell lines (MCF-12F, MCF-7 and MDA-MB-231) were used in the experiments. Cells were plated at a density of 1 × 10^3 cells/100 µL in each well of 96-well microplates and allowed to adhere for 24 h before treatment with test compounds. A concentration range from 4 to 1000 μM was applied for 72 h. The formazan absorption was registered using a microplate reader at λ = 540 nm. Antiproliferative activities were expressed as IC50 values (concentrations required for 50% inhibition of cell growth).

[2] = system: Arthrobacter oxydans NBIMCC 9333; format: cell-based; conditions: for Inhibition effect, A. oxydans 9333: zone of peptide over zone of antibiotic x 100; for Inhibition zone, A. oxydans 9333: 20 µL per disc, 24 h
Experimental: (§1) The parent peptide Temporin A and the novel analogs were subjected to tests against model strains Escherichia coli NBIMCC 8785, Bacillus subtilis NBIMCC 3562, Arthrobacter oxydans NBIMCC 9333, Pseudomonas aeruginosa NBIMCC 3700, and Candida albicans NBIMCC 74, for the assessment of their antimicrobial activity. The strains were acquired from the National Bank for Industrial Microorganisms and Cell Cultures (NBIMCC, Bulgaria). The strain E. coli 8785 was cultured in Luria-Bertani broth (LB, HiMedia, Mumbai, India); B. subtilis 3562—in nutrient broth (NB, HiMedia, Mumbai, India); A. oxydans 9333; P. aeruginosa 3700—in meat peptone agar (MPA) medium; and C. albicans 74—in yeast mold (YM) medium. An incubator shaker ES-20/60 (Biosan, Latvia) was used for the cultivation and was set to 30 °C for B. subtilis 3562, A. oxydans 9333, and C. albicans 74; and 37 °C for E. coli 8785 and P. aeruginosa 3700, with a 24 h shaking period at 120 rpm. The microbial cultures were then adjusted to a turbidity of 0.5 McFarland using a Grant-bio DEN-1B densitometer (Grant Instruments, Royston, UK) for further use.
(§2) The disk-diffusion method was used as an additional method, with the aim of determining the percent inhibition of the tested samples against the model strains. Sterile plates with LB/NB/MPA/YM agar medium were inoculated on the surface with 100 μL from each microbial culture and incubated at 30 or 37 °C for 30 min, for the suspension to penetrate the agar. After that, sterile paper discs (HiMedia, Mumbai, India) with a diameter of 6 mm were soaked with 20 µL of the peptide solutions with concentrations of 1.4 mg/mL and 10 mg/mL and placed on the agar surface. Sterile paper discs with 10% EtOH/H2O were used as a negative control, and the corresponding strain antibiotic disks (HiMedia, Mumbai, India)—as a positive control. The incubation of the plate was performed at 30/37 °C for 24 h. The antimicrobial activity was analyzed by measuring the diameter of the inhibition zones in mm. The experiments were conducted in triplicates, and the average values for the percent of inhibition as a correlation between the inhibition zone of the peptides over the inhibition zone of the antibiotic multiplied by 100 were calculated.

[3] = system: Bacillus subtilis NBIMCC 3562; format: cell-based; conditions: for Inhibition effect, B. subtilis 3562: zone of peptide over zone of antibiotic x 100; for Inhibition zone, B. subtilis 3562: 20 µL per disc, 24 h
Experimental: as §1, §2

[4] = system: Candida albicans NBIMCC 74; format: cell-based; conditions: 20 µL per disc, 24 h
Experimental: as §1, §2

[5] = system: Escherichia coli NBIMCC 8785; format: cell-based; conditions: 20 µL per disc, 24 h
Experimental: as §1, §2

[6] = system: Pseudomonas aeruginosa NBIMCC 3700; format: cell-based; conditions: for Inhibition effect, P. aeruginosa 3700: zone of peptide over zone of antibiotic x 100; for Inhibition zone, P. aeruginosa 3700: 20 µL per disc, 24 h
Experimental: as §1, §2

[7] = system: Candida albicans NBIMCC 74; format: cell-based; conditions: broth dilution, 0 to 320 µg/mL, 24 h; NI = no inhibition monitored

Row | Structure (SMILES) | IC50 [1] | SI (Selectivity Index), MDA-MB-231 [1] | Inhibition effect, A. oxydans 9333 ([2]; 1.4 mg/mL) | Inhibition effect, A. oxydans 9333 ([2]; 10 mg/mL) | Inhibition zone, A. oxydans 9333 ([2]; peptide 1.4 mg/mL) | Inhibition zone, A. oxydans 9333 ([2]; peptide 10 mg/mL) | Inhibition effect, B. subtilis 3562 ([3]; 1.4 mg/mL) | Inhibition effect, B. subtilis 3562 ([3]; 10 mg/mL) | Inhibition zone, B. subtilis 3562 ([3]; peptide 1.4 mg/mL) | Inhibition zone, B. subtilis 3562 ([3]; peptide 10 mg/mL) | Inhibition zone, C. albicans 74 ([4]; peptide 1.4 mg/mL) | Inhibition zone, C. albicans 74 ([4]; peptide 10 mg/mL) | Inhibition zone, E. coli 8785 ([5]; peptide 1.4 mg/mL) | Inhibition zone, E. coli 8785 ([5]; peptide 10 mg/mL) | Inhibition effect, P. aeruginosa 3700 ([6]; 1.4 mg/mL) | Inhibition effect, P. aeruginosa 3700 ([6]; 10 mg/mL) | Inhibition zone, P. aeruginosa 3700 ([6]; peptide 1.4 mg/mL) | Inhibition zone, P. aeruginosa 3700 ([6]; peptide 10 mg/mL) | MIC, C. albicans 74 [7]
1 | CC[C@H](C)[C@H](NC(=O)CNC(=O)[C@H](CO)NC(=O)[C@H](CC(C)C)NC(=O)[C@@H](NC(=O)[C@H](CCN)NC(=O)CNC(=O)[C@@H](NC(=O)[C@H](CC(C)C)NC(=O)[C@@H]1CCCN1C(=O)[C@H](CC(C)C)NC(=O)[C@@H](N)Cc1ccccc1)[C@@H](C)CC)C(C)C)C(=O)N[C@@H](CC(C)C)C(N)=O [DTDab, FLPLIG-Dab-VLSGIL-NH2] (H-FLPLIG[Dab]VLSGIL-NH2; N-terminus assumed) | 174.9 ± 1.35 µM | 1.60 | 43.2% | 76.3% | 8.2 ± 0.3 mm | 14.5 ± 0.5 mm | 0.0% | 45.2% | 0.0 mm | 11.3 ± 0.6 mm | 0.0 mm | 0.0 mm | 0.0 mm | 0.0 mm | 48.1% | 89.4% | 7.7 ± 0.6 mm | 14.3 ± 0.6 mm | 
2 | CC[C@H](C)[C@H](NC(=O)CNC(=O)[C@H](CO)NC(=O)[C@H](CC(C)C)NC(=O)[C@@H](NC(=O)[C@H](CCCCN)NC(=O)CNC(=O)[C@@H](NC(=O)[C@H](CC(C)C)NC(=O)[C@@H]1CCCN1C(=O)[C@H](CC(C)C)NC(=O)[C@@H](N)Cc1ccccc1)[C@@H](C)CC)C(C)C)C(=O)N[C@@H](CC(C)C)C(N)=O [DTF, FLPLIG-K-VLSGIL-NH2, reference compound] (H-FLPLIGKVLSGIL-NH2) | 77 ± 2.92 µM | 1.30 | 33.5% | 57.5% | 6.7 ± 0.3 mm | 11.5 ± 0.5 mm | 34.0% | 50.8% | 8.5 ± 0.5 mm | 12.7 ± 0.6 mm | 0.0 mm | 0.0 mm | 0.0 mm | 0.0 mm | 43.8% | 64.4% | 7.0 ± 0.5 mm | 10.3 ± 0.8 mm | 320 µg/mL (≈ 234 µM)
